Patent publication US20160077107A1, “PERSONALISED MEDICINE” (STICHTING KATHOLIEKE UNIVERSITEIT, priority 2013, published 2016)
Entries after “also recorded” stand apart in the source; their conditions may differ.

Tests used:
[1] = tested on: IL-1β production by human PBMCs; assay: IL-1β production by human PBMCs stimulated with PRR ligands with or without caspase-1 inhibitor (ELISA); type: cell-based; conditions: 24 h stimulation, 50 healthy donors
[2] = tested on: IL-1β production of PBMCs from gout patients; conditions: MSU or C16.0 alone; cited from earlier work

Compound	induction of IL-1β production by human PBMCs [1]	release of IL-1β by the single component alone [2]
CC(=O)N[C@H]1C(O)O[C@H](CO)[C@@H](O)[C@@H]1O[C@H](C)C(=O)N[C@@H](C)C(=O)N[C@H](CCC(=O)O)C(N)=O (mixture of isomers) [MDP, Muramyl dipeptide]	strong inducers; also recorded: weak inducer	–
CCCCCCCCCCCCCCCC(=O)O [C16.0, Palmitic acid]	–	neither does
Flagellin	weak inducer	–
Pam3cys	strong inducers	–
